Results taken from patent US12054526B2, “Polypeptides, nucleic acid molecules, compositions, and related methods” (CHILDREN'S HOSPITAL MEDICAL CENTER, priority 2018, dated 2024).
“Also recorded” adds a separate entry of the source.

Key:
[1] = system: WT C2C12 myoblasts; assay: Synchronized fusion assay (LPC), WT C2C12; type: cell-based; conditions: 50 μM CPZ 60 seconds at LPC removal, assayed after 30 minutes
Text: (§1) We uncoupled the myoblast fusion stage of myogenic differentiation from the stages that prepare the cells for fusion using a fusion-synchronization approach described previously (GAMAGE et al. (2017) “Insights into the localization and function of myomaker during myoblast fusion” J Biol Chem, Vol. 292, pp. 17272-17289, which is herein incorporated by reference in its entirety; LEIKINA et al. (2013) “Extracellular annexins and dynamin are important for sequential steps in myoblast fusion” J Cell Biol, Vol. 200, pp. 109-123, which is herein incorporated by reference in its entirety). In brief, fusion-committed myoblasts were placed into complete medium supplemented with 150 μM lauroyl LPC (#855475P, Avanti Polar Lipids). 16 h later we washed the cells three times with LPC-free complete medium. […]
(§2) We labeled C2C12 cells 48 hours after placement in the differentiation medium, and co-plated differently labeled cells in a 1-to-1 ratio. […] Fusion was scored 30 min after LPC removal and thus […] after placing the cells into differentiation medium. […] We kept the cells in LPC-supplemented differentiation medium for 16 hours, washed out LPC with LPC-free medium and 30 minutes later (˜24 hours after placing the cells into differentiation medium) scored fusion. […]

[2] = system: Myomaker^−/− C2C12 cells; assay: Synchronized fusion assay (LPC), Myomaker^−/− C2C12; type: cell-based; conditions: 50 μM CPZ 60 seconds at LPC removal, assayed after 30 minutes
Method: We labeled C2C12 cells 48 hours after placement in the differentiation medium, and co-plated differently labeled cells in a 1-to-1 ratio. […] Fusion was scored 30 min after LPC removal and thus −68 hours after placing the cells into differentiation medium. […] We kept the cells in LPC-supplemented differentiation medium for 16 hours, washed out LPC with LPC-free medium and 30 minutes later (˜24 hours after placing the cells into differentiation medium) scored fusion.
Formation of multinucleated myotubes was quantified as the percentage of cell nuclei present in myotubes normalized to the total number of cell nuclei. Hemifusion and fusion pore opening were quantified as a number of double-labeled mononucleated cells normalized to the total number of cell nuclei in the field. […]

[3] = system: Myomerger^−/− C2C12 myoblasts; assay: Synchronized fusion assay (LPC), Myomerger^−/− C2C12; type: cell-based; conditions: 50 μM CPZ 60 seconds at LPC removal, assayed after 30 minutes
Text: as §1, §2

[4] = system: Myomerger^−/− C2C12 myoblasts; assay: Myoblast fusion assay (myosin+ cells, nuclei count), Myomerger-deficient myoblasts; type: cell-based
Text: To specifically characterize different steps in fusion, we used 3 distinct assays: (i) hemifusion between cells labeled with membrane probe and content probe with unlabeled cells where hemifusion was detected as the appearance of lipid-labeled mononucleated cells without the content probe (FIG. 1A, FIG. 2A, FIG. 1E)); (ii) opening of a fusion pore in fusion between cells labeled with green cell tracker and cells labeled with orange cell tracker was detected as appearance of double-labeled cells (FIG. 1F); and (iii) fusion completion was detected as formation of multinucleated cells. […] Formation of multinucleated myotubes was quantified as the percentage of cell nuclei present in myotubes normalized to the total number of cell nuclei. Hemifusion and fusion pore opening were quantified as a number of double-labeled mononucleated cells normalized to the total number of cell nuclei in the field. For each condition, ≥8 randomly chosen fields of view were imaged. We also analyzed fusion by assessing the number of nuclei in myosin^+ cells. Here, cells were fixed with 4% paraformaldehyde (PFA)/PBS, permeabilized with 0.02% Triton X-100/PBS, and blocked with 3% BSA/PBS followed by immunostaining with myosin antibodies (MF 20, Developmental Studies Hybridoma Bank, 1:40) for one hour at room temperature. Alexa-Fluor secondary antibody (Invitrogen, 1:250) was incubated for 30 minutes at room temperature. Nuclei were stained with Hoechst (Invitrogen). Samples were imaged with a Nikon Eclipse inverted microscope with AIR confocal running NIS Elements and images were analyzed with Fiji (SCHINDELIN et al. (2012) “Fiji: an open-source platform for biological-image analysis” Nat Methods, Vol. 9, pp. 676-682, which is herein incorporated by reference in its entirety)
For detergent and recombinant protein application, 2.5×10^4 myoblasts per well of an 8-well μ-slide (Ibidi) were differentiated for 72 hours. 0.06% Octyl-β-Glucoside (OG) (Anatrace) in differentiation media was incubated for 30 minutes at 37° C. Cells were washed with PBS and switched back to normal differentiation media for 5 hours. For primary myoblasts, 3×10^4 cells were plated per well of an 8-well μ-slide (Ibidi) coated with fibronectin (Sigma-Aldrich, 5 μg/cm^2) and differentiated for 36 hours. Cells were treated with 0.06% OG in PBS for 30 minutes at 37° C., washed with PBS and switched back to normal differentiation media for 2 hours. For recombinant proteins, cells were treated with various concentrations of rMBP or rMBP-Myomerger^26-84 (0.5 μM, 1.25 μM, 3 μM, 6.25 μM and 12.5 μM), or 6.25 μM of Magainin 2 (AnaSpec), in differentiation media for 20 hours at 37° C.

[5] = system: Myomaker^−/− C2C12 myoblasts; assay: Myoblast fusion assay (myosin+ cells, nuclei count), Myomaker-deficient myoblasts; type: cell-based
Text: (§3) To specifically characterize different steps in fusion, we used 3 distinct assays: (i) hemifusion between cells labeled with membrane probe and content probe with unlabeled cells where hemifusion was detected as the appearance of lipid-labeled mononucleated cells without the content probe (FIG. 1A, FIG. 2A, FIG. 1E)); (ii) opening of a fusion pore in fusion between cells labeled with green cell tracker and cells labeled with orange cell tracker was detected as appearance of double-labeled cells (FIG. 1F); and (iii) fusion completion was detected as formation of multinucleated cells. […] Formation of multinucleated myotubes was quantified as the percentage of cell nuclei present in myotubes normalized to the total number of cell nuclei. Hemifusion and fusion pore opening were quantified as a number of double-labeled mononucleated cells normalized to the total number of cell nuclei in the field. For each condition, ≥8 randomly chosen fields of view were imaged. We also analyzed fusion by assessing the number of nuclei in myosin^+ cells. […] Samples were imaged with a Nikon Eclipse inverted microscope with AIR confocal running NIS Elements and images were analyzed with Fiji (SCHINDELIN et al. (2012) “Fiji: an open-source platform for biological-image analysis” Nat Methods, Vol. 9, pp. 676-682, which is herein incorporated by reference in its entirety) […]

[6] = system: C2C12 myoblasts; assay: Myoblast fusion assay, WT myoblasts; type: cell-based
Text: as §3

[7] = system: mouse Red Blood Cells (RBCs); assay: Red blood cell hemolysis (spectrophotometer); type: cell-based; conditions: Myomerger ectodomain at 25 μM
Method: Myomerger ectodomain (amino acids 26-84) was added to mouse Red Blood Cells (RBCs) and hemolysis was measured using a spectrophotometer (FIG. 9).

[8] = system: primary myoblasts; assay: Myoblast fusion assay, Myomerger-deficient primary myoblasts; type: cell-based, mouse; conditions: 0.06% OG in PBS 30 minutes
Text: as §3

[9] = system: Escherichia coli (E. coli); assay: Bactericidal assay, colony forming units; type: cell-based; conditions: 25 μM, 2 hours
Method: (§4) Gram-positive bacteria Listeria monocytogenes (Lm) and gram-negative bacteria Escherichia coli (E. coli) were treated with 25 μM recombinant Myomerger ectodomain (labeled as “protein” in FIG. 8) for 2 hours.

[10] = system: Listeria monocytogenes (Lm); assay: Bactericidal assay, colony forming units; type: cell-based; conditions: 25 μM, 2 hours
Method: as §4

[11] = 6.25 μM Magainin 2, 20 hours on day 3 of differentiation
[12] = 0.06% OG 30 minutes on day 3 of differentiation, fusion assessed 5 hours after treatment

Question: `CN(C)CCCN1c2ccccc2Sc2ccc(Cl)cc21` [CPZ, chlorpromazine] was tested. Which “fusion (syncytium formation)” value [1] did it give?
Answer: little effect

Question: What about the “fusion (syncytium formation)” value [2] of the same molecule?
Answer: No fusion was observed

Question: What about the “fusion (syncytium formation)” value [3] of the same molecule?
Answer: reached fusion levels observed for WT myoblasts

Question: How did the fusion [4, 11] turn out when Magainin 2 [Mag2] was run?
Answer: partially rescued fusion; also recorded: induced myotube formation

Question: And the “percentage of myosin+ cells with 3 or ≥4 nuclei” value ([4]; Mag2 treatment)?
Answer: increased the percentage of cells with 3 nuclei but also induced formation of myotubes with ≥4 nuclei

Question: What about the fusion [5, 11] of the same molecule?
Answer: had no effect

Question: What about the fusion ([6]; Mag2 treatment) of the same molecule?
Answer: did not have an effect

Question: And the hemolysis [7]?
Answer: no measurable effect

Question: Which results are given for `CCCCCCCCO[C@@H]1O[C@H](CO)[C@@H](O)[C@H](O)[C@H]1O` [OG, Octyl-β-Glucoside]?
Answer: fusion [4, 12]: obvious fusion events; also recorded: induced fusion; percentage of myosin+ cells with 3 or ≥4 nuclei ([4]; OG treatment): increased the percentage of cells with 3 nuclei but also induced formation of myotubes with ≥4 nuclei; fusion [5, 12]: did not fuse; fusion ([6]; OG treatment): did not have an effect; fusion [8]: compensate for loss of Myomerger

B1: Myomerger ectodomain: recombinant Myomerger ectodomain (amino acids 26-84) used in Example Set B (protein)
chain: MPVPLLPMVLRSLLSRLLLPVARLARQHLLPLLRRLARRLSSQDMREALLSCLLFVLSQQQPPDSGEASRVDHSQRKERLGPQK
Question: How did the “growth (colony forming units)” value [9] turn out when B1 was run?
Answer: disrupts the growth

Question: And the “growth (colony forming units)” value [10]?
Answer: disrupts the growth

Question: And the “effect on Lm compared to E. coli” value ([10]; gram-positive vs gram-negative)?
Answer: more of an effect

Question: And the hemolysis [7]?
Answer: induced lysis
